Assay results from patent US6500858B2, “Taxoid anti-tumor agents and pharmaceutical compositions thereof” (The Research Foundation of the state University of New York, priority 1994, dated 2002).
“And” between values parts separate entries of the source, which are not always exact repeats. Equal values may be shown once. Read-outs that look alike come from different tables or passages of the source.

Legend:
[1] = tested on: LCC6-WT: human breast carcinoma; experiment: cytotoxicity assay of second generation taxoids; format: cell-based; settings: 72 h drug exposure; read-out: LCC6-WT IC50
Protocol: A cytotoxicity assay of these new second generation taxoids was performed on human breast cancer cell lines, LCC6-WT and LCC-MDR, and selected taxoids were also assayed for their potency against MCF7 and MCF7-R (Skehan, P., et al., J. Nat. Cancer Inst. 1990, 82, 1107-1112).

[2] = tested on: docetaxel-resistant melanoma, B16/TXT; experiment: intravenous administration to B16/TXT melanoma-bearing mice; format: in vivo, B6D2F1 female mice; settings: days 3, 5, 7
Protocol: (§1) The efficacy of the test compounds on solid tumors in vivo was determined experimentally according to the following general experimental protocol:
(§2) The mice subjected to the experiment were subcutaneously grafted bilaterally with 30 to 60 mg of a tumor fragment on day zero. Mice bearing tumors were mixed before being subjected to the various treatments and controls. In the case of treatment of advanced tumors, tumors were allowed to develop to the desired size, and mice having insufficiently developed tumors were eliminated. The selected mice were distributed at random to undergo the treatments and controls. Mice not bearing tumors may also be subjected to the same treatments as the tumor-bearing mice in order to be able to dissociate the toxic effect from the specific effect on the tumor. Chemotherapy generally began from 3 to 22 days after grafting, depending on the type of tumor, and the mice were observed every day. The different mice groups were weighed 3 or 4 times a week until the maximum weight loss was attained (nadir), and the groups were then weighed at least once a week until the end of the trial.
(§3) The tumors were measured 2 or 3 times a week until the tumor reached approximately 2 grams, or until the animal died, if this occurred before the tumor reached 2 grams. The mice were autopsied when sacrificed.
(§4) The antitumor activity was determined in accordance with different parameters recorded such as dose (mg/kg), mode of administration, time of administration, cytotoxicity, toxicity and log10 cell kill.
SB-T-1213, SB-T-121303, SB-T-121304 and SB-T-1250 were evaluated in B6D2F1 female mice bearing the docetaxel-resistant melanoma, B16/TXT. The general experimental protocol was as described above. The compounds evaluated were administered intravenously on an intermittent schedule on days 3, 5, and 7 post tumor implantation.

B16 melanoma = experiment: intravenous administration to mice bearing B16 melanoma; format: in vivo, B6D2F1 female mice; design: key to Responses (activity rating): A = active; HA = highly active
Protocol: as §1, §2, §3, §4
SB-T-1213, SB-T-121303, SB-T-121304 and SB-T-1250 were evaluated in B6D2F1 female mice bearing B16 melanoma. The general experimental protocol was as described above. The compounds evaluated were administered intravenously (iv) on an intermittent schedule on days 3, 5, and 7 post tumor implantation. With the exception of SB-T-1250, solutions of the compounds for administration were prepared in 5% ethanol, 5% polysorbate 80, and 90% glucose 5% water.

MCF7 (mammary carcinoma) = experiment: tumor cell growth inhibition (SRB, 72 h drug exposure); format: cell-based, human; settings: read-out: MCF7 IC50
Protocol: (§5) Lower numbers indicate higher potency. […] The data represent the mean values of at least three separate experiments. Lower numbers indicate greater activity.
(§6) Assessment of cell growth inhibition was determined according to the methods of Skehan et al., J. Nat. Cancer Inst. […] Briefly, cells were plated between 400 and 1200 cells/well in 96 well plates and incubated at 37° C. for 15-18 h prior to drug addition to allow attachment of cells. […] After a 72 h incubation, […] of ice-cold 50% TCA was added to each well and incubated for 1 h at 4° C. Plates were then washed 5 times with tap water to remove TCA, low-molecular-weight metabolites and serum proteins. Sulforhodamine B (SRB) (0.4%, […]) was added to each well. Following a 5 min incubation at room temperature, plates were rinsed 5 times with 0.1% acetic acid and air dried. […] Optical density was measured at 570 nm.

[3] = tested on: MCF7-R (mammary carcinoma cells 180-fold resistant to adriamycin); experiment: as above; format: cell-based, human
Protocol: as §5, §6

Row | IC50 (MCF7 (mammary carcinoma); Table 2) [nM] | IC50 ([3]; Table 2) [nM] | Compound | IC50 [1] [nM] | further results
1 |  |  | 3′-Dephenyl-3′-(2-methylprop-1-enyl)-2-debenzoyl-2-(3-methoxybenzoyl)-10-cyclopropyldocetaxel [Taxoid 7m] | 1 | 
2 |  |  | CCC(=O)O[C@H]1C(=O)[C@@]2(C)[C@H]([C@H](OC(=O)c3cccc(OC)c3)[C@]3(O)C[C@H](OC(=O)[C@H](O)[C@H](C=C(C)C)NC(=O)OC(C)(C)C)C(C)=C1C3(C)C)[C@]1(OC(C)=O)CO[C@@H]1C[C@@H]2O [SB-T-121303] |  | T/C ([2]; 0.7 mg/kg/adm.): 94%; drug related deaths (DD) ([2]; 1.9 mg/kg/adm.): ⅕; drug related deaths (DD) ([2]; 3.2 mg/kg/adm.): 100%; highest nontoxic dose [2]: 1.2 mg/kg/adm.; Responses (activity rating) (B16 melanoma; 1.9 mg/kg/adm.): A; T/C (B16 melanoma; 1.9 mg/kg/adm., days 3, 5, 7): 12%; log10 cell kill (B16 melanoma; 1.9 mg/kg/adm., days 3, 5, 7): 1.7; % body weight loss at nadir (B16 melanoma; 1.9 mg/kg/adm., days 3, 5, 7, 1.9 mg/kg): 16.9% and 16.9 (13) %; drug related deaths (DD) (B16 melanoma; 3.2 mg/kg/adm., days 3, 5, 7): 100%; highest nontoxic dose (B16 melanoma; days 3, 5, 7): 1.9 mg/kg/adm.
3 |  |  | CCC(=O)OC1C(=O)C2(C)C(O)CC3OCC3(OC(C)=O)C2C(OC(=O)c2cccc(F)c2)C2(O)CC(OC(=O)C(O)C(CC(C)C)NC(=O)OC(C)(C)C)C(C)=C1C2(C)C (stereo not drawn) [Taxoid 7a, 3′-Dephenyl-3′-(2-methylpropyl)-2-debenzoyl-2-(3-fluorobenzoyl)-10-propanoyldocetaxel] | 0.4 | 
4 |  |  | CCC(=O)OC1C(=O)C2(C)C(O)CC3OCC3(OC(C)=O)C2C(OC(=O)c2cccc(F)c2)C2(O)CC(OC(=O)C(O)C(C=C(C)C)NC(=O)OC(C)(C)C)C(C)=C1C2(C)C (stereo not drawn) [Taxoid 7b, 3′-Dephenyl-3′-(2-methylprop-1-enyl)-2-debenzoyl-2-(3-fluorobenzoyl)-10-propanoyldocetaxel] | 0.5 | 
5 |  |  | CCC(=O)OC1C(=O)C2(C)C(O)CC3OCC3(OC(C)=O)C2C(OC(=O)c2cccc(Cl)c2)C2(O)CC(OC(=O)C(O)C(C=C(C)C)NC(=O)OC(C)(C)C)C(C)=C1C2(C)C (stereo not drawn) [Taxoid 7d, 3′-Dephenyl-3′-(2-methylprop-1-enyl)-2-debenzoyl-2-(3-chlorobenzoyl)-10-propanoyldocetaxel] | 0.8 | 
6 |  |  | CCC(=O)OC1C(=O)C2(C)C(O)CC3OCC3(OC(C)=O)C2C(OC(=O)c2cccc(OC)c2)C2(O)CC(OC(=O)C(O)C(NC(=O)OC(C)(C)C)C(F)F)C(C)=C1C2(C)C (stereo not drawn) [Taxoid 7g, 3′-Dephenyl-3′-difluoromethyl-2-debenzoyl-2-(3-methoxybenzoyl)-10-propanoyldocetaxel] | 1.5 | IC50 (MCF7 (mammary carcinoma); 72 h drug exposure, Table 3): 0.4 nM; IC50 ([3]; 72 h drug exposure, Table 3): 4.3 nM
7 |  |  | C=CCCC(NC(=O)OC(C)(C)C)C(O)C(=O)OC1CC2(O)C(OC(=O)c3cccc(OC)c3)C3C4(OC(C)=O)COC4CC(O)C3(C)C(=O)C(OC(=O)CC)C(=C1C)C2(C)C (stereo not drawn) [Taxoid 7h, 3′-Dephenyl-3′-(3-butenyl)-2-debenzoyl-2-(3-methoxybenzoyl)-10-propanoyldocetaxel] | 0.9 | IC50 (MCF7 (mammary carcinoma); 72 h drug exposure, Table 3): 2 nM; IC50 ([3]; 72 h drug exposure, Table 3): 7.7 nM
8 |  |  | C=CCC(NC(=O)OC(C)(C)C)C(O)C(=O)OC1CC2(O)C(OC(=O)c3cccc(OC)c3)C3C4(OC(C)=O)COC4CC(O)C3(C)C(=O)C(OC(=O)CC)C(=C1C)C2(C)C (stereo not drawn) [Taxoid 7i, 3′-Dephenyl-3′-(2-propenyl)-2-debenzoyl-2-(3-methoxybenzoyl)-10-propanoyldocetaxel] | 1.2 | IC50 (MCF7 (mammary carcinoma); 72 h drug exposure, Table 3): 0.8 nM; IC50 ([3]; 72 h drug exposure, Table 3): 8.7 nM
9 |  |  | CCC(=O)OC1C(=O)C2(C)C(O)CC3OCC3(OC(C)=O)C2C(OC(=O)c2cccc(OC)c2)C2(O)CC(OC(=O)C(O)C(NC(=O)OC(C)(C)C)[C@H]3CC3(C)C)C(C)=C1C2(C)C (stereo partly drawn) [Taxoid 7j, 3′-Dephenyl-3′-[(S)-2,2-dimethylcyclopropyl]-2-debenzoyl-2-(3-methoxybenzoyl)-10-propanoyldocetaxel] | 0.48 | IC50 (MCF7 (mammary carcinoma); 72 h drug exposure, Table 3): 0.6 nM; IC50 ([3]; 72 h drug exposure, Table 3): 1.5 nM
10 |  |  | C/C=C/C(NC(=O)OC(C)(C)C)C(O)C(=O)OC1CC2(O)C(OC(=O)c3cccc(OC)c3)C3C4(OC(C)=O)COC4CC(O)C3(C)C(=O)C(OC(=O)CC)C(=C1C)C2(C)C (stereo not drawn) [Taxoid 7k, 3′-Dephenyl-3′-[(E)-prop-1-enyl]-2-debenzoyl-2-(3-methoxybenzoyl)-10-propanoyldocetaxel] | 1.2 | 
11 |  |  | C=Cc1cccc(C(=O)OC2C3C4(OC(C)=O)COC4CC(O)C3(C)C(=O)C(OC(=O)CC)C3=C(C)C(OC(=O)C(O)C(C=C(C)C)NC(=O)OC(C)(C)C)CC2(O)C3(C)C)c1 (stereo not drawn) [Taxoid 7p, 3′-Dephenyl-3′-(2-methylprop-1-enyl)-2-debenzoyl-2-(3-ethenylbenzoyl)-10-propanoyldocetaxel] | 2.9 | 
12 | 0.35 | 2.84 | CCC(=O)OC1C(=O)C2(C)C(O)CC3OCC3(OC(C)=O)C2C(OC(=O)c2ccccc2)C2(O)CC(OC(=O)C(O)C(CC(C)C)NC(=O)OC(C)(C)C)C(C)=C1C2(C)C (stereo not drawn) [Taxoid Ib′, 3′-dephenyl-3′-(2-methylpropyl)-10-propanoyldocetaxel] |  | 
13 | 0.51 | 4.33 | CC(=O)OC12COC1CC(O)C1(C)C(=O)C(OC(=O)C3CC3)C3=C(C)C(OC(=O)C(O)C(CC(C)C)NC(=O)OC(C)(C)C)CC(O)(C(OC(=O)c4ccccc4)C21)C3(C)C (stereo not drawn) [Taxoid Ic′, 3′-Dephenyl-3′-(2-methylpropyl)-10-cyclopropanecarbonyldocetaxel] |  | 
14 | 0.26 | 3.35 | CC=CC(=O)OC1C(=O)C2(C)C(O)CC3OCC3(OC(C)=O)C2C(OC(=O)c2ccccc2)C2(O)CC(OC(=O)C(O)C(C=C(C)C)NC(=O)OC(C)(C)C)C(C)=C1C2(C)C (stereo not drawn) [Taxoid Id, 3′-Dephenyl-3′-(2-methyl-1-propenyl)-10-crotonoyldocetaxel] |  | 
15 | 0.13 | 4.91 | CC(=O)OC12COC1CC(O)C1(C)C(=O)C(OC(=O)N(C)C)C3=C(C)C(OC(=O)C(O)C(C=C(C)C)NC(=O)OC(C)(C)C)CC(O)(C(OC(=O)c4ccccc4)C21)C3(C)C (stereo not drawn) [Taxoid Ie, 3′-Dephenyl-3′-(2-methyl-1-propenyl)-O-N,N-dimethylcarbamoyldocetaxel] |  | 
16 | 0.36 | 5.8 | CC(=O)OC12COC1CC(O)C1(C)C(=O)C(OC(=O)N(C)C)C3=C(C)C(OC(=O)C(O)C(CC(C)C)NC(=O)OC(C)(C)C)CC(O)(C(OC(=O)c4ccccc4)C21)C3(C)C (stereo not drawn) [Taxoid Ie′, 3′-Dephenyl-3′-(2-methylpropyl)-10-N,N-dimethylcarbamoyldocetaxel] |  | 
17 | 0.14 | 5.25 | COC(=O)OC1C(=O)C2(C)C(O)CC3OCC3(OC(C)=O)C2C(OC(=O)c2ccccc2)C2(O)CC(OC(=O)C(O)C(C=C(C)C)NC(=O)OC(C)(C)C)C(C)=C1C2(C)C (stereo not drawn) [Taxoid If, 3′-Dephenyl-3′-(2-methyl-1-propenyl)-10-methoxycarbonyldocetaxel] |  | 
18 | 0.48 | 6.35 | COC(=O)OC1C(=O)C2(C)C(O)CC3OCC3(OC(C)=O)C2C(OC(=O)c2ccccc2)C2(O)CC(OC(=O)C(O)C(CC(C)C)NC(=O)OC(C)(C)C)C(C)=C1C2(C)C (stereo not drawn) [Taxoid If′, 3′-Dephenyl-3′-(2-methylpropyl)-10-methoxycarbonyldocetaxel] |  | 

Row | Compound | IC50 (MCF7 (mammary carcinoma); Table 2) [nM] | IC50 ([3]; Table 2) [nM] | IC50 [1] [nM] | further results
19 | CC(=O)OC12COC1CC(O)C1(C)C(=O)C(OC(=O)C3CC3)C3=C(C)C(OC(=O)C(O)C(C=C(C)C)NC(=O)OC(C)(C)C)CC(O)(C(OC(=O)c4ccccc4)C21)C3(C)C (stereo not drawn) [Taxoid Ic, 3′-Dephenyl-3′-(2-methyl-1-propenyl)-10-cyclopropanecarbonyldocetaxel] | 0.2 | 2.11 |  | times better activity than paclitaxel and docetaxel against drug-resistant human breast cells ([3]; MCF7-R): 142 times
